Experimental data as given in patent US20110021623A1, “SYSTEM AND METHODS OF MELANOMA PREVENTION” (Regents of the University of New Mexico, priority 2006, published 2011).
Like-named read-outs stand apart in the source and are kept apart here.

Assays:
[1] = tested on: mouse melanocyte cell line (B16); assay: DNA adduct assay (13C tyrosine enrichment, isotope ratio mass spectrometry); assay type: cell-based; settings: B16 cells, 300 μM PTU immediately after 20 min full spectrum UV, 5 μM 13C tyrosine 1 hour after UV, DNA isolated after 4 hours
Method: FIG. 4 is a graph illustrating a DNA adduct assay. Mouse melanocyte cell line (B16) was incubated with 300 μM phenylthiourea (PTU) immediately after ultraviolet (UV) radiation exposure. After 20 minutes of full spectrum ultraviolet (UV) radiation exposure, 5 μM ^13C tyrosine was added 1 hour after ultraviolet (UV) radiation exposure. After 4 hours, DNA was isolated and adducts determined as an increase in ^13C enrichment over baseline after combustion and isotope ratio mass spectrometry.

[2] = tested on: mouse melanocyte cell line (B16); assay: Melanocyte survival by trypan blue exclusion after solar simulated UV exposure; assay type: cell-based; settings: for Melanocyte survival (viability) in ultraviolet (UV) exposed cells: 20 min solar simulated UV (~15 MEDS), increasing doses of inhibitor after exposure, trypan blue exclusion 24 hours after UV
Method: FIG. 3 is a graph illustrating death of melanocytes with tyrosinase inhibitors applied subsequent to ultraviolet (UV) radiation exposure. The graph illustrates results from a study conducted with mice melanocyte cell line (B16). The mouse melanocyte cell line (B16) was exposed to solar simulated ultraviolet (UV) radiation for 20 minutes. The solar ultraviolet (UV) radiation was simulated using a 300 W Xe solar simulator, equivalent to approximately 15 Minimal Erythemal Doses (MEDS), or equivalent to strong sunburn. After ultraviolet (UV) radiation exposure, cells were treated with increasing doses of the following tyrosinase inhibitors: kojic acid (shown in FIG. 3A) and methyl gentisate (shown in FIG. 3B). Melanocyte survival was determined by trypan blue exclusion 24 hours after ultraviolet (UV) radiation exposure. It was shown that there was no effect of tyrosinase inhibitors on the survival in non-ultraviolet (UV) exposed cells (not shown in FIG. 3). […] Preventing quinones from passing out of the melanosome substantially protects melanocytes from DNA damage.

SMILES	DNA adducts (13C enrichment over baseline, delta value) [1]	Melanocyte survival (viability) in ultraviolet (UV) exposed cells ([2]; B16 cells)	Melanocyte survival in non-ultraviolet (UV) exposed cells ([2]; B16 cells, no UV exposure, trypan blue exclusion)	Melanocyte survival in non-ultraviolet (UV) exposed cells [2]
NC(=S)Nc1ccccc1 [PTU, phenylthiourea]	greatly decreases DNA adducts	–	–	–
O=c1cc(CO)occ1O [kojic acid]	–	dose dependent increase in viability	no effect	–
COC(=O)c1cc(O)ccc1O [methyl gentisate]	–	dose dependent increase in viability	–	no effect
